This note sets out measurements from US9199941B2, “Pyrazole indanyl carboxamides” (BAYER CROPSCIENCE AG, priority 2012, dated 2015).

One data set relates to Puccinia recondita. Briefly: In vivo preventive test on Puccinia recondita (brown rust on wheat). Particulars: preventive spray, wheat plants, grading 12 days after contamination. On the procedure: Plants, used as controls, are treated with the mixture of acetone/tween/DMSO/water not containing the active material. After 24 hours, the plants are contaminated by spraying the leaves with an aqueous suspension of Puccinia […] spores (100 000 spores per ml). […] Grading (% of efficacy) is carried out 12 days after the contamination, in comparison with the control plants.

Another data set deals with Alternaria brassicae. Briefly: In vivo preventive test on Alternaria brassicae (leaf spot on radish). As to conditions: 500 ppm, preventive spray, radish plants, grading 6 days after contamination. On the procedure:
Radish plants (“Pernod Clair” variety), sown in starter cups on a 50/50 peat soil-pozzolana substrate and grown at 17° C., are treated at the cotyledon stage by spraying with the active ingredient prepared as described above. Plants, used as controls, are treated with the mixture of acetone/tween/DMSO/water not containing the active material. After 24 hours, the plants are contaminated by spraying the cotyledons with an aqueous suspension of Alternaria brassicae spores (50 000 spores per ml). The spores are collected from a 15-day-old culture. […] Grading (% of efficacy) is carried out 6 days after the contamination, in comparison with the control plants.

Another data set has as its system Septoria tritici. Briefly: In vivo preventive test on Septoria tritici (leaf spot on wheat). Particulars: 500 ppm, preventive spray, wheat plants, grading 24 days after contamination. On the procedure: Wheat plants (“Scipion” variety), sown in starter cups on a 50/50 peat soil-pozzolana substrate and grown at 22° C., are treated at the 1-leaf stage (10 cm height) by spraying with the active ingredient prepared as described above. Plants, used as controls, are treated with the mixture of acetone/tween/DMSO/water not containing the active material. After 24 hours, the plants are contaminated by spraying the leaves with an aqueous suspension of cryopreserved Septoria tritici spores (500 000 spores per ml). […] Grading (% of efficacy) is carried out 24 days after the contamination, in comparison with the control plants.

The subject of the next data set is Pyrenophora teres. The data set can be described thus: In vivo preventive test on Pyrenophora teres (net blotch on barley). Particulars: preventive spray, barley plants, incubated 48 hours then 12 days; for Eff. %: 500 ppm. On the procedure:
Barley plants (“Plaisant” variety), sown in starter cups on a 50/50 peat soil-pozzolana substrate and grown at 22° C., are treated at the 1-leaf stage (10 cm height) by spraying with the active ingredient prepared as described above. Plants, used as controls, are treated with the mixture of acetone/tween/DMSO/water not containing the active material. After 24 hours, the plants are contaminated by spraying the leaves with an aqueous suspension of Pyrenophora teres spores (12 000 spores per ml). The spores are collected from a 12-day-old culture.

Data set [1] is described as follows: log P by HPLC on reversed phase columns (EEC directive 79/831 Annex V.A8). Type of data set: physicochemical. Particulars: Table 1, compounds of formula (I); method [a]: LC-MS at pH 2.7, 0.1% formic acid in water / acetonitrile.
The test system of another data set is Uromyces appendiculatus. Briefly: In vivo preventive test on Uromyces appendiculatus (bean rust). Particulars: preventive spray, bean plants, grading 11 days after contamination. On the procedure: Bean plants (“Saxa” variety), sown in starter cups on a 50/50 peat soil-pozzolana substrate and grown at 24° C., are treated at the 2-leaf stage (9 cm height) by spraying with the active ingredient prepared as described above. Plants, used as controls, are treated with the mixture of acetone/tween/DMSO/water not containing the active material. After 24 hours, the plants are contaminated by spraying the leaves with an aqueous suspension of Uromyces appendiculatus spores (150 000 spores per ml). […] Grading (% of efficacy) is carried out 11 days after the contamination, in comparison with the control plants.

The subject of another data set is Sphaerotheca fuliginea. Briefly: In vivo preventive test on Sphaerotheca fuliginea (powdery mildew on cucurbits). Particulars: preventive spray, gherkin plants, grading 12 days after contamination. On the procedure: Gherkin plants (“Vert petit de Paris” variety), sown in starter cups on a 50/50 peat soil-pozzolana substrate and grown at 24° C., are treated at the Z11 cotyledon stage by spraying with the active ingredient prepared as described above. Plants, used as controls, are treated with the mixture of acetone/tween/DMSO/water not containing the active material. After 24 hours, the plants are contaminated by spraying the cotyledons with an aqueous suspension of Sphaerotheca fuliginea spores (100 000 spores per ml). The spores are collected from infected plants. The contaminated gherkin plants are incubated at about 20° C. and at 70-80% relative humidity. Grading (% of efficacy) is carried out 12 days after the contamination, in comparison with the control plants.

The subject of a further data set is Botrytis cinerea. Briefly: In vivo preventive test on Botrytis cinerea (grey mould), gherkin. Particulars: preventive spray, gherkin plants, grading 4 to 5 days after contamination. On the procedure: Gherkin plants (“Vert petit de Paris” variety), sown in starter cups on a 50/50 peat soil-pozzolana substrate and grown at 24° C., are treated at the Z11 cotyledon stage by spraying with the active ingredient prepared as described above. Plants, used as controls, are treated with the mixture of acetone/tween/DMSO/water not containing the active material. After 24 hours, the plants are contaminated by spraying the cotyledons with an aqueous suspension of cryopreserved Botrytis cinerea spores (50 000 spores per ml). The spores are suspended in a nutrient solution composed of 10 g/L of PDB, 50 g/L of D-Fructose, 2 g/L of NH4NO3 and 1 g/L of KH2PO4. The contaminated gherkin plants are incubated at 17° C. and at 90% relative humidity. Grading (% of efficacy) is carried out 4 to 5 days after the contamination, in comparison with the control plants.

Structures are written as SMILES.

On to `CC1CC(C(C)C)c2cccc(NC(=O)c3cn(C)nc3C(F)F)c21` (centres unmarked) [Example 6], for which the Eff. % is listed as 100% with Puccinia recondita (500 ppm); 100% in the data set on Alternaria brassicae; 92% with Septoria tritici; 96% in the data set with Pyrenophora teres; 100% in the data set on Uromyces appendiculatus (500 ppm); 97% in the data set on Sphaerotheca fuliginea (500 ppm). In addition, the logP in data set [1] is 3.82[a].

As to `CC1CCc2cccc(NC(=O)c3cn(C)nc3C(F)F)c21` (centres unmarked) [Example 9], the Eff. % in the data set on Puccinia recondita (500 ppm) came out at 100%; with Alternaria brassicae, 92%; with Septoria tritici it was 97%; with Pyrenophora teres, 96%; with Uromyces appendiculatus (500 ppm), 100%. For the same compound, the Efficacy result in the data set on Pyrenophora teres (100 ppm) is listed as “at least 70%”. For the same compound, in data set [1], the logP is 2.78[a].

Turning to `CC1CC2(CC2)c2cccc(NC(=O)c3cn(C)nc3I)c21` (centres unmarked) [Example 52], the Eff. % in the data set on Puccinia recondita (100 ppm) amounted to 90%; in the data set on Botrytis cinerea (100 ppm), 87%; with Uromyces appendiculatus (100 ppm) it was 100%; in the data set on Sphaerotheca fuliginea (100 ppm), 88%. In addition, in data set [1], the logP was 3.24[a].

Regarding `CC(C)CC1CC(C)c2c(NC(=O)c3cn(C)nc3C(F)F)cccc21` (centres unmarked) [Example 33], the Eff. % in the data set on Puccinia recondita (500 ppm) turned out to be 98%; in the data set with Alternaria brassicae, 97%; in the data set with Septoria tritici, 93%; with Pyrenophora teres it was 97%; in the data set with Uromyces appendiculatus (500 ppm), 100%; with Sphaerotheca fuliginea (500 ppm), 100%. In addition, in data set [1], the logP was 4.24[a].

For the compound `CC(C)CC1CC(C)c2c(NC(=S)c3cn(C)nc3C(F)F)cccc21` (centres unmarked) [Example 44], the Eff. % with Puccinia recondita (500 ppm) was determined as 100%; in the data set on Alternaria brassicae, 95%; with Septoria tritici, 88%; in the data set with Botrytis cinerea (500 ppm), 73%; in the data set on Uromyces appendiculatus (500 ppm) it was 100%; in the data set with Sphaerotheca fuliginea (500 ppm) it was 100%.

As for `CCON=C1CC(C)c2c(NC(=O)c3cn(C)nc3C(F)F)cccc21` (centres unmarked) [Example 34], the Eff. % in the data set with Puccinia recondita (500 ppm) was 81%; in the data set with Alternaria brassicae, 86%; in the data set with Septoria tritici, 86%; in the data set on Pyrenophora teres, 83%; in the data set with Uromyces appendiculatus (500 ppm), 97%. For the same compound, the logP in data set [1] is 2.78[a].

Regarding `CC1CC2(CCCCC2)c2cccc(NC(=O)c3cn(C)nc3C(F)F)c21` (centres unmarked) [Example 46], the Eff. % with Puccinia recondita (100 ppm) was 100%; with Botrytis cinerea (100 ppm), 75%; with Uromyces appendiculatus (100 ppm) it was 100%; in the data set on Sphaerotheca fuliginea (100 ppm), 100%. In addition, the logP in data set [1] was 4.2[a].

On to `CC1CC(C)c2c(NC(=O)c3cn(C)nc3C(F)F)cccc21` (centres unmarked) [Example 8], for which the Eff. % was determined as 100% with Puccinia recondita (500 ppm); 91% with Septoria tritici; 100% in the data set on Botrytis cinerea (500 ppm); 88% with Pyrenophora teres; 100% in the data set on Uromyces appendiculatus (500 ppm); 95% in the data set on Sphaerotheca fuliginea (500 ppm). Also, the logP in data set [1] was 3.21[a].

As to `Cc1nn(C)c(F)c1C(=O)Nc1cccc2c1C(C)CC2CC(C)C` (centres unmarked) [Example 20], the Eff. % in the data set on Puccinia recondita (500 ppm) was determined as 100%; in the data set with Alternaria brassicae, 93%; in the data set with Septoria tritici, 79%; in the data set on Pyrenophora teres it was 97%; in the data set on Uromyces appendiculatus (500 ppm), 100%; in the data set with Sphaerotheca fuliginea (500 ppm), 98%. Further, the logP in data set [1] is 4.32[a].

For the compound `CC1CC2(CCCCC2)c2cccc(NC(=S)c3cn(C)nc3C(F)F)c21` (centres unmarked) [Example 53], the Eff. % with Puccinia recondita (100 ppm) was determined as 100%; with Botrytis cinerea (100 ppm) it was 82%; in the data set with Uromyces appendiculatus (100 ppm) it was 100%; with Sphaerotheca fuliginea (100 ppm) it was 100%. In addition, the logP in data set [1] was 4.67[a].
